What was measured:
[1] = tested on: ⍺4β7 transfected 293T cells; assay: Flow cytometry: staining of 293T cells co-transfected with ⍺4 and β7 expression vectors; assay type: binding; conditions: PE-labelled ligand, Fig 1C
Excerpt: The FRET/FLIM results described above indicate a direct interaction between CD4 and ⍺4β7. […] To this end we employed a fluorescently labelled soluble dodecameric CD4 Ig fusion protein, termed D1D2-Ig⍺tp, that includes the two N-terminal Ig-like domains of CD4 (D1D2, aa 1–180), followed by IgG1 CH2 and CH3 domains, followed by the 18 aa tail-piece domain of IgA (⍺tp). In this oligomer, 12 D1D2-Igs are arranged in a disulphide linked daisy-chain (Fig 1A). Primary CD4^+ T cells, some of which express ⍺4β7, were reacted with D1D2-Ig⍺tp and analyzed by flow-cytometry. A second oligomeric Ig fusion protein, MicA-Ig⍺tp, which includes the two N-terminal domains of MicA, was employed as a specificity control. […] MAdCAM-Ig was employed as a positive control. […] We conclude that an oligomeric soluble CD4 that includes only its two N-terminal domains can bind to ⍺4β7 in a specific way.
Fig 1 Binding of soluble CD4 to ⍺4β7 on CD4^+ T cells. (A) Schematic of D1D2-Ig⍺tp. […] X-axis indicates geometric mean fluorescence intensity (gMFI). […]
(§1) Cells were stained with fluoresceine conjugated mAbs or recombinant proteins using standard procedures preceded by Fc receptor blocking with human IgG. […] Data were acquired using a FACSCanto II (BD Biosciences) and analyzed with FlowJo software (BD Biosciences). […]

⍺4β7 on RPMI8866 cells = assay: Flow cytometry: cross-inhibition of MAdCAM-Ig, VCAM-Ig and D1D2-Ig⍺tp binding to RPMI8866 cells; design: species or system human; conditions: increasing concentrations of unlabeled inhibitor, Fig 2C, 2D
Method: Cis interactions between various integrins and leukocyte receptors are known to regulate immune cell functions. To determine whether CD4 inhibits MAdCAM-1 or VCAM-1 binding to ⍺4β7 we preincubated RPMI8866 cells with labelled MAdCAM-Ig or VCAM-Ig in the presence of increasing concentrations of unlabeled D1D2-Ig⍺tp. […] This implies that MAdCAM-1 and VCAM-1, acting in trans, may interfere with CD4-⍺4β7 interactions. What remains unknown is whether interactions between ⍺4β7 and CD4 impact CD4 migration into the TCR and subsequent interactions with MHC II (Fig 2E).
Fig 2 Cross-inhibition of MAdCAM-Ig, VCAM-Ig and D1D2-Ig⍺tp binding to ⍺4β7. Flow cytometric analysis of (A) PE -conjugated MAdCAM-Ig or (B) PE -conjugated VCAM-Ig binding to RPMI8866 cells pre-incubated with increasing concentrations of unlabeled D1D2-Igαtp. Cell preincubated with increasing concentrations of (C) unlabeled MAdCAM-Ig or (D) VCAM-Ig followed by PE -conjugated D1D2-Ig⍺tp. Y-axis indicates gMFI. Dashed line indicates gMFI in the absence of any inhibitor.
as §1, with “IgG. Buffers used were 10 mM HEPES 150 mM NaCl (HBS Buffer) with 100 μM CaCl2.” for “IgG.”

[2] = tested on: ⍺4β7 on primary CD8^+ T cells; assay: Flow cytometry: FAM-conjugated pCD4^165-178 binding to RA-treated primary CD8^+ T cells; design: species or system human; conditions: FAM-Ttds-labelled peptide 1.25 μg/200,000 cells in 100 μl; presence or absence of Mn^++
Excerpt: To further investigate the interaction between pCD4^165-178 and ⍺4β7 we attached a fluorescein dye to its amino terminus via a trioxatridecan-succinamic acid (Ttds) linker (Fig 5A). A scrambled pCD4^165-178 was employed as a control. […] FIB504 and vedolizumab inhibited binding by ~50%. This inhibition pattern resembles the one we obtained when inhibiting D1D2-Ig⍺tp with the same antagonists (Fig 3). We conclude that the CD4 D2 G β-strand binds directly to the headpiece region of ⍺4β7 in a cation dependent manner. Support for this conclusion, in the form of site directed mutagenesis within the D2 G β-strand is provided below.
Fig 5 Direct binding of pCD4^165-178 to ⍺4β7 on primary T cells. (A) Sequence of FAM -conjugated pCD4^165-178 and a scrambled derivative (FAM-scr pCD4^165-178). (B) Flow-cytometry derived histogram of pCD4^165-178 binding to RA -cultured CD8^+ T cells. pCD4^165-178 in the presence (green), or absence of Mn^++(black). Unstained cells are shown (grey). (C) Binding of pCD4^165-178 and its scrambled derivative to CD8^+ T cells in the presence of MnCl2 as in panel B, and in the presence of ⍺4 and ⍺4β7 antagonists, as indicated. Y-axis indicates % cells bound. Error bars represent standard error from 3 independent experiments.
Cells were stained with fluoresceine conjugated mAbs or recombinant proteins using standard procedures preceded by Fc receptor blocking with human IgG. Buffers used were 10 mM HEPES 150 mM NaCl (HBS Buffer) with 100 μM CaCl2. 1 mM MnCl2 was also included, unless otherwise specified. Buffer without divalent cations included 0.1 mM EDTA. Unlabeled mAb or protein inhibitors were preincubated with cells or proteins at a 5X molar excess for 15 min on ice. FAM labeled peptides were used at 1.25 μg/ 200,000 cells in a 100 μl volume. Data were acquired using a FACSCanto II (BD Biosciences) and analyzed with FlowJo software (BD Biosciences). Plotted MFI values represent absolute values.

| Substance | binding to ⍺4β7 transfected versus untransfected 293T cells (in words) [1] | inhibition of PE-conjugated D1D2-Ig⍺tp binding to ⍺4β7 (in words) (⍺4β7 on RPMI8866 cells) | binding of FAM-labelled peptide to RA-treated CD8^+ T cells (in words) [2] |
| --- | --- | --- | --- |
| MAdCAM-Ig: recombinant MAdCAM-1 Ig fusion, R&D Systems [reference compound] | bound preferentially to ⍺4β7 transfected cells | inhibited D1D2-Ig⍺tp binding to ⍺4β7 in a dose dependent manner |  |
| QKKVEFKIDIVVLA [CD4 P42, linear CD4 D2 peptide, residues 165-178, G β-strand] |  |  | reacted strongly in the presence, but not in the absence of Mn^++ |
